Results as given in patent publication US20220361493A1, “HERBICIDE COMPOSITION” (UPL CORPORATION LIMITED, priority 2019, published 2022).

Legend:
Test in all cases: Herbicidal efficacy, % weed control
Format in all cases: in vivo
Cenchrus echinatus = settings: 35 days after administration
From the text: (§1) This effectiveness of all treatments can be evaluated according to Colby's equation. In the Colby's equation given below, E is the expected efficacy of combination of Propisochlor and another herbicide, X is the observed efficacy of Propisochlor and Y is the observed efficacy of other herbicide. Observed efficacy values i.e. X and Y are % weed control for Propisochlor and another herbicide. If observed efficacy of combination of Propisochlor and other herbicide is greater than its expected efficacy, then combination is determined to be synergistic. If observed efficacy is equal to or less than expected efficacy, then combination is determined to be non-synergistic.
(§2) Experiments were carried out to evaluate the efficacy of combinations of present invention.
(§3) Herbicidal activity of synergistic mixtures of the combinations of present invention is represented in below tables.

Brachiaria decumbens = settings: 35 days after administration
From the text: as §1, §2, §3

Ipomoea grandifolia = test system: Ipomoea grandifolia
From the text: as §1, §2, §3

Commelina benghalensis = settings: 35 days after administration
From the text: as §1, §2, §3

Brachiaria plantaginea = settings: 35 days after administration, Table 1
From the text: as §1, §2, §3

Ipomoea hederifolia = settings: 35 days after administration, Table 2
From the text: as §1, §2, §3

Spermacoce verticillata = settings: 35 days after administration, Table 2
From the text: as §1, §2, §3

Eleusine indica = settings: 35 days after administration, Table 2
From the text: as §1, §2, §3

CCSC(C)CC1CC(=O)C(/C(CC)=N/OC/C=C/Cl)=C(O)C1 (stereo not drawn) [Clethodim]
% Weed control Cenchrus echinatus (Cenchrus echinatus; 120 g ai/ha, Table 4): 0.0%

CN(C)C(=O)Nc1ccc(Cl)c(Cl)c1 [Diuron]
% Weed control Brachiaria decumbens (Brachiaria decumbens; 1000 g ai/ha, Table 9): 3.8%
% Weed control Brachiaria decumbens (Brachiaria decumbens; 2000 g ai/ha, Table 9): 12.5%
% Weed control Ipomoea grandifolia (Ipomoea grandifolia; 500 g ai/ha, 21 days after administration, Table 7): 0.0%
% Weed control Ipomoea grandifolia (Ipomoea grandifolia; 1000 g ai/ha, 35 days after administration, Table 9): 0.0%
% Weed control Ipomoea grandifolia (Ipomoea grandifolia; 2000 g ai/ha, 35 days after administration, Table 9): 0.0%
% Weed control Cenchrus echinatus (Cenchrus echinatus; 1000 g ai/ha, Table 9): 5.0%
% Weed control Cenchrus echinatus (Cenchrus echinatus; 2000 g ai/ha, Table 9): 1.3%
% Weed control Commelina benghalensis (Commelina benghalensis; 500 g ai/ha, Table 8): 0%

C#CCN1C(=O)COc2cc(F)c(N3C(=O)C4=C(CCCC4)C3=O)cc21 [Flumioxazin]
% Weed control Brachiaria plantaginea (Brachiaria plantaginea; 50 g ai/ha): 53.75%
% Weed control Brachiaria decumbens (Brachiaria decumbens; 50 g ai/ha, Table 1): 63.75%
% Weed control Commelina benghalensis (Commelina benghalensis; 50 g ai/ha, Table 1): 90.25%

COC(=O)[C@@H](C)Oc1ccc(Oc2ncc(C(F)(F)F)cc2Cl)cc1 [Haloxyfop-p-methyl]
% Weed control Brachiaria decumbens (Brachiaria decumbens; 62.1 g ai/ha, Table 3): 11.3%

CN(C)c1nc(=O)n(C2CCCCC2)c(=O)n1C [Hexazinone]
% Weed control Brachiaria decumbens (Brachiaria decumbens; 125 g ai/ha, Table 6): 11.3%
% Weed control Commelina benghalensis (Commelina benghalensis; 125 g ai/ha, Table 6): 45.0%

CCc1cccc(C)c1N(COC(C)C)C(=O)CCl [Propisochlor]
% Weed control Ipomoea hederifolia (Ipomoea hederifolia; 525 g ai/ha): 26.25%
% Weed control Ipomoea hederifolia (Ipomoea hederifolia; 675 g ai/ha): 27%
% Weed control Brachiaria plantaginea (Brachiaria plantaginea; 1200 g ai/ha): 84.50%
% Weed control Brachiaria decumbens (Brachiaria decumbens; 540 g ai/ha, Table 9): 68.8%
% Weed control Brachiaria decumbens (Brachiaria decumbens; 1080 g ai/ha, Table 3): 92.0%
% Weed control Brachiaria decumbens (Brachiaria decumbens; 1080 g ai/ha, Table 6): 75.0%
% Weed control Brachiaria decumbens (Brachiaria decumbens; 1200 g ai/ha, Table 1): 85.75%
% Weed control Spermacoce verticillata (Spermacoce verticillata; 525 g ai/ha): 92.75%
% Weed control Spermacoce verticillata (Spermacoce verticillata; 675 g ai/ha): 95.75%
% Weed control Ipomoea grandifolia (Ipomoea grandifolia; 540 g ai/ha, 21 days after administration, Table 7): 7.5%
% Weed control Ipomoea grandifolia (Ipomoea grandifolia; 540 g ai/ha, 35 days after administration, Table 9): 0.0%
% Weed control Ipomoea grandifolia (Ipomoea grandifolia; 540 g ai/ha, 35 days after administration, Table 11): 53.8%
% Weed control Ipomoea grandifolia (Ipomoea grandifolia; 1080 g ai/ha, 21 days after administration, Table 7): 22.5%
% Weed control Ipomoea grandifolia (Ipomoea grandifolia; 1080 g ai/ha, 35 days after administration, Table 10): 45.0%
% Weed control Ipomoea grandifolia (Ipomoea grandifolia; 1080 g ai/ha, 35 days after administration, Table 11): 55.50%
% Weed control Eleusine indica (Eleusine indica; 525 g ai/ha): 99.75%
% Weed control Eleusine indica (Eleusine indica; 675 g ai/ha): 100.00%
% Weed control Cenchrus echinatus (Cenchrus echinatus; 540 g ai/ha, Table 4): 71.3%
% Weed control Cenchrus echinatus (Cenchrus echinatus; 540 g ai/ha, Table 5): 71.3%
% Weed control Cenchrus echinatus (Cenchrus echinatus; 540 g ai/ha, Table 9): 91.8%
% Weed control Cenchrus echinatus (Cenchrus echinatus; 1080 g ai/ha, Table 4): 88.8%
% Weed control Cenchrus echinatus (Cenchrus echinatus; 1080 g ai/ha, Table 5): 88.8%
% Weed control Commelina benghalensis (Commelina benghalensis; 1080 g ai/ha, Table 6): 90.8%
% Weed control Commelina benghalensis (Commelina benghalensis; 1080 g ai/ha, Table 8): 90.8%
% Weed control Commelina benghalensis (Commelina benghalensis; 1080 g ai/ha, Table 10): 90.8%
% Weed control Commelina benghalensis (Commelina benghalensis; 1200 g ai/ha, Table 1): 92.00%

CCOC(=O)[C@@H](C)Oc1ccc(Oc2cnc3cc(Cl)ccc3n2)cc1 [Quizalafop-p-ethyl]
% Weed control Cenchrus echinatus (Cenchrus echinatus; 87.5 g ai/ha, Table 5): 77.5%

Cc1nn(-c2cc(NS(C)(=O)=O)c(Cl)cc2Cl)c(=O)n1C(F)F [Sulfentrazone]
% Weed control Ipomoea hederifolia (Ipomoea hederifolia; 75 g ai/ha): 98.00%
% Weed control Spermacoce verticillata (Spermacoce verticillata; 75 g ai/ha): 92.25%
% Weed control Eleusine indica (Eleusine indica; 75 g ai/ha): 90.00%

CNC(=O)N(C)c1nnc(C(C)(C)C)s1 [Tebuthiuron]
% Weed control Ipomoea grandifolia (Ipomoea grandifolia; 400 g ai/ha, 35 days after administration, Table 10): 12.5%
% Weed control Commelina benghalensis (Commelina benghalensis; 400 g ai/ha, Table 10): 0.0%

CCCN(CCC)c1c([N+](=O)[O-])cc(C(F)(F)F)cc1[N+](=O)[O-] [Trifluralin]
% Weed control Ipomoea grandifolia (Ipomoea grandifolia; 300 g ai/ha, 35 days after administration, Table 11): 0.0%
